In assay [1] the target is muscarinic receptors. The assay can be described thus: Radioligand binding: displacement of the muscarinic agonist 3H-Oxotremorine-M (3H-OXO-M) from rat cerebral cortex. The arrangement: species or system Hooded Lister rats. The following applies: 2 nM 3H-OXO-M, rat cerebral cortex homogenate, 2 mM magnesium chloride, 37° C., 30 min, tested as the oxalate salt.
Assay [2] deals with muscarinic receptors. The format is binding, Hooded Lister rats. As to conditions: 0.27 nM 3H-QNB, rat cerebral cortex homogenate, 37° C., 30 min, tested as the oxalate salt.

The values that follow come from patent US5043342A (priority 1988, dated 1991).

Structures are written as SMILES. Where a name gives a salt, the structure may show the parent alone. Read-outs that look alike come from different tables or passages of the source.

`CCc1noc(C2CN3CCC2C3)n1` (single isomer, unassigned; (-)) [Example E3, (-) exo-(3-Ethyl-1-1,2,4-oxadiazol-5-y1)-1-azabicyclo-[2.2.1]heptane oxalate salt]: the results for the concentration for half-maximal inhibition (IC50) on muscarinic receptors [1] (oxalate salt) and on muscarinic receptors [2] (oxalate salt) were 0.036 µM and 0.725 µM, respectively.

On to `CCc1noc(C2CN3CCC2C3)n1` (single isomer, unassigned; (+)) [Example E2, (+) exo-3-(3-Ethyl-1,2,4-oxadiazol-5-yl)-1-azabicyclo-[2.2.1]heptane oxylate salt], for which the half-inhibitory concentration (IC50) (usually the concentration that inhibits the measured activity by half) on muscarinic receptors [1] was determined as 0.026 µM; on muscarinic receptors [2], 1.59 µM.

As for `CCc1noc([C@@H]2CN3CC[C@@H]2C3)n1` (relative stereo) [Example E1, (±) exo-3-(3-Ethyl-1,2,4-oxadiazol-5-yl)-1-azabicyclo-[2.2.1]heptane oxalate salt], the concentration for half-maximal inhibition (IC50) at muscarinic receptors [1] came out at 0.031 µM; on muscarinic receptors [2] it was 0.94 µM.
